For one test, the target named is T1, EGFR (Homo sapiens, UniProt P00533).
T1 construct: purchased
Briefly: KdELECT binding assay, EGFR. How it is done:
Exemplary compounds were tested for ability to bind to EGFR.
(§1) Compounds were tested using a KdELECT assay. Kinase-tagged T7 phage strains were prepared in an E. coli host derived from the BL21 strain. E. coli were grown to log-phase and infected with T7 phage and incubated with shaking at 32° C. until lysis. The lysates were centrifuged and filtered to remove cell debris. The remaining kinases were produced in HEK-293 cells and subsequently tagged with DNA for qPCR detection. Streptavidin-coated magnetic beads were treated with biotinylated small molecule ligands for 30 minutes at room temperature to generate affinity resins for kinase assays. The liganded beads were blocked with excess biotin and washed with blocking buffer (SeaBlock (Pierce), 1% BSA, 0.05% Tween 20, 1 mM DTT) to remove unbound ligand and to reduce non-specific binding. Binding reactions were assembled by combining kinases, liganded affinity beads, and test compounds in 1× binding buffer (20% SeaBlock, 0.17×PBS, 0.05% Tween 20, 6 mM DTT). Test compounds were prepared as 111× stocks in 100% DMSO. Kd values were determined using an 11-point 3-fold compound dilution series with three DMSO control points. All compounds for Kd measurements are distributed by acoustic transfer (non-contact dispensing) in 100% DMSO. The compounds were then diluted directly into the assays such that the final concentration of DMSO was 0.9%. All reactions performed in polypropylene 384-well plate. Each was a final volume of 0.02 mL. The assay plates were incubated at room temperature with shaking for 1 hour and the affinity beads were washed with wash buffer (1× PBS, 0.05% Tween 20). The beads were then re-suspended in elution buffer (1× PBS, 0.05% Tween 20, 0.5 μM nonbiotinylated affinity ligand) and incubated at room temperature with shaking for 30 minutes. The kinase concentration in the eluates was measured by qPCR.

Test [1] concerns the target T2, EGFR T790M, L858R (amino acids 669-1011 Accession Number NP_005219.2) (Homo sapiens, UniProt P00533, L858R/T790M).
T2 construct: purchased Eurofins Discovery; host or cells: mammalian cells (HEK-293)
Briefly: KdELECT binding assay (Eurofins Discovery), EGFR T790M, L858R. To be noted: read-out: EGFR DM Kd. How it is done:
(§2) Exemplary compounds were tested for ability to bind to EGFR WT (amino acids 669-1011, Accession Number NP_005219.2) or EGFR T790M, L858R (amino acids 669-1011 Accession Number NP_005219.2) expressed from bacteria or mammalian cells, respectively. Compounds were tested using the KdELECT assay at Eurofins Discovery.
as §1, with “Kinase-tagged” for “Compounds were tested using a KdELECT assay. Kinase-tagged”

The target in test [2] is T3, EGFR WT (amino acids 669-1011, Accession Number NP_005219.2) (Homo sapiens, UniProt P00533).
T3 construct: purchased Eurofins Discovery; host or cells: bacteria (E. coli, BL21-derived, T7 phage)
Briefly: KdELECT binding assay (Eurofins Discovery), EGFR WT. How it is done: as §2
as §1, with “Kinase-tagged” for “Compounds were tested using a KdELECT assay. Kinase-tagged”

A further test deals with HEK293 cells. Put plainly: Cellular growth inhibition assay (CellTiter-Glo), HEK293 cells. In kind it is cell-based. To be noted: Homo sapiens, 72 h, three days compound treatment, CellTiter-Glo 2.0, read-out: CTG HEK293 GI50. As for the experimental part: Exemplary compounds were tested for ability to inhibit the proliferation of HEK293 cells or HeLa cells.
HEK293 and HeLa cells were cultured in DMEM medium supplemented with 10% fetal bovine serum and 1% Penn/Strep. Cells were seeded in white 384-well plates at 500 cells/well in […] complete medium. Following seeding, plates were spun at 300×g for three minutes and cultured at 37° C. with 5% CO2 in a humidified tissue culture incubator.
After 24 hours, compounds were titrated in 100% DMSO and diluted in complete cell culture medium. […] of compound/media mixture was added to cells to bring total volume in well to […]. DMSO alone was used as a negative control. P lates were then spun at 300×g for three minutes and stored at 37° C. with 5% CO2 for three days.
On Day 0 and Day 3 of compound treatment, cell viability was quantified with CellTiter-Glo 2.0 reagent (Promega). After equilibrating microplates at room temperature for 30 minutes, 25 μL CellTiter-Glo 2.0 reagent was dispensed into each well to bring total volume to […]. Plates were mixed on shaker for 2 minutes at 500 rpm, followed by a 10-minute incubation at room temperature. Following a quick spin, luminescence readings were measured with an EnVision Plate Reader. Data was normalized to DMSO treated Day 0 and Day 3 readings. A four-parameter non-linear regression curve fit was applied to dose-response data in GraphPad Prism data analysis software to determine the half maximal growth inhibitory concentration (GI50) for each compound.

Where only a bound is given, the exact number is not on record here.

T2 sequence (P00533 669-1011 T790M/L858R): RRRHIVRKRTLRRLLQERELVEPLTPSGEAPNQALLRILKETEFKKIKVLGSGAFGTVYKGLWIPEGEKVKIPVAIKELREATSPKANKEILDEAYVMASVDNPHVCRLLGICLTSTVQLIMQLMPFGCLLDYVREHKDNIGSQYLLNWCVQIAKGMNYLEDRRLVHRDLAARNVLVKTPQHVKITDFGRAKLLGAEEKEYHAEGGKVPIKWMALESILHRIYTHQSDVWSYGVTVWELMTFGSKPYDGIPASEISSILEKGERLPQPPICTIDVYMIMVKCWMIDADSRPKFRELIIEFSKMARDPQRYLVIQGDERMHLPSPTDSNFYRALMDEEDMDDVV
T3 sequence (P00533 669-1011): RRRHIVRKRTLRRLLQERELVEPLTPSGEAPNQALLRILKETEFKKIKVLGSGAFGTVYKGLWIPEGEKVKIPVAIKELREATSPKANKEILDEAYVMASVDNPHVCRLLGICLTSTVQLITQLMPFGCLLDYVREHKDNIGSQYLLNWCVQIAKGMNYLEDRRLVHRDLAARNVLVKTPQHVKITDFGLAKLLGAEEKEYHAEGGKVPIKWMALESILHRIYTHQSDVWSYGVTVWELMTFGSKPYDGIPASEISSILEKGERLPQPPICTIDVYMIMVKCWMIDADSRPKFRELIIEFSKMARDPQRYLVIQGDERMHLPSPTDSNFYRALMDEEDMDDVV
T1 sequence (P00533 25-1210): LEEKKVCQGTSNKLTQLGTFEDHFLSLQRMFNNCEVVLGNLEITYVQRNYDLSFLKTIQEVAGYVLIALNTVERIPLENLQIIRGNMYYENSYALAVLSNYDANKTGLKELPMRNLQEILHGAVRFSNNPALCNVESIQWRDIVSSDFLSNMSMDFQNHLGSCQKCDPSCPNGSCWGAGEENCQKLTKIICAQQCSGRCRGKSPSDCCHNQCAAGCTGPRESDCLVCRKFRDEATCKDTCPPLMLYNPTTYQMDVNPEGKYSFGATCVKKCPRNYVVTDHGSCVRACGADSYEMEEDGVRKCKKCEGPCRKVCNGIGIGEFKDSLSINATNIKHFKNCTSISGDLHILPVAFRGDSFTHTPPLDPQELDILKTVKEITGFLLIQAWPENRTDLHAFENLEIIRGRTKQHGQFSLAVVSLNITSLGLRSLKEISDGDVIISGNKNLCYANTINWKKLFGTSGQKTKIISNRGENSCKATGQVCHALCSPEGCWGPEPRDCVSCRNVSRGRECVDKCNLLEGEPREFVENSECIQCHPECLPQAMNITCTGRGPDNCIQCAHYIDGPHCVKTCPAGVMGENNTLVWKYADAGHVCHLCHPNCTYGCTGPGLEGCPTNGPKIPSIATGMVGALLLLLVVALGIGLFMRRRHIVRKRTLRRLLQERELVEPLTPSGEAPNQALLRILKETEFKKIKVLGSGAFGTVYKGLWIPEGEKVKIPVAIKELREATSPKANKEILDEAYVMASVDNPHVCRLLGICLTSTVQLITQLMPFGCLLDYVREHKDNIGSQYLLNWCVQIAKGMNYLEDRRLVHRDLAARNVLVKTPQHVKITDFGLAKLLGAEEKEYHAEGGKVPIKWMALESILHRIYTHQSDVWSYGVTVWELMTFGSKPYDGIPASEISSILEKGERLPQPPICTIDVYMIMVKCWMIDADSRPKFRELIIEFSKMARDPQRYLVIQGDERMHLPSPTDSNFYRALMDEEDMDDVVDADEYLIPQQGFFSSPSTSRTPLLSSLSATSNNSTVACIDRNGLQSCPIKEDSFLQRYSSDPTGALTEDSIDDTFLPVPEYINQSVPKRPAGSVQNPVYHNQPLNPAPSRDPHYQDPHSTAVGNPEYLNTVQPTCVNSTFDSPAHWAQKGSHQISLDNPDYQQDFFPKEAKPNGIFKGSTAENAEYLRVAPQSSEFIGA

The term Kd denotes the free concentration of one partner at which half of the binding sites on the other are occupied at equilibrium, for simple one-to-one binding. In the case of `C=CC(=O)Nc1cc(Nc2nccc(-c3cn(C)c4ccccc34)n2)c(OC)cc1N(C)CCN(C)CCCCCCCCNS(=O)(=O)c1ccc(Nc2ncc(Br)c(Nc3cccc(F)c3C(N)=O)n2)cc1` [Compound I-28, 2-[[5-bromo-2-[4-[8-[2-[5-methoxy-N-methyl-4-[[4-(1-methylindol-3-yl)pyrimidin-2-yl]amino]-2-(prop-2-enoylamino)anilino]ethyl-methyl-amino]octylsulfamoyl]anilino]pyrimidin-4-yl]amino]-6-fluoro-benzamide], the Kd at EGFR is < 50 nM; in test [1], < 50 nM; in test [2], 50 to 500 nM.
`C=CC(=O)Nc1cc(Nc2nccc(-c3cn(C)c4ccccc34)n2)c(OC)cc1N(C)CCN(C)CCCCNS(=O)(=O)c1ccc(Nc2ncc(Br)c(Nc3cccc(F)c3C(N)=O)n2)cc1` [Compound I-29, 2-[[5-bromo-2-[4-[4-[2-[5-methoxy-N-methyl-4-[[4-(1-methylindol-3-yl)pyrimidin-2-yl]amino]-2-(prop-2-enoylamino)anilino]ethyl-methyl-amino]butylsulfamoyl]anilino]pyrimidin-4-yl]amino]-6-fluoro-benzamide]: the figures for the Kd in test [1] and in test [2] were < 50 nM and 50 to 500 nM, respectively.
Take `C=CC(=O)Nc1cc(Nc2nccc(-c3cn(C)c4ccccc34)n2)c(OC)cc1N(C)CCN(C)CCOCCOCCOCCOCCNS(=O)(=O)c1ccc(Nc2ncc(Br)c(Nc3cccc(F)c3C(N)=O)n2)cc1` [Compound I-32, 2-[[5-bromo-2-[4-[2-[2-[2-[2-[2-[2-[5-methoxy-N-methyl-4-[[4-(1-methylindol-3-yl)pyrimidin-2-yl]amino]-2-(prop-2-enoylamino)anilino]ethyl-methyl-amino]ethoxy]-ethoxy]ethoxy]ethoxy]ethylsulfamoyl]anilino]pyrimidin-4-yl]amino]-6-fluoro-benzamide]: the Kd in test [1] was < 50 nM; in test [2] it was 50 to 500 nM.
Consider `C=CC(=O)Nc1cc(Nc2nccc(-c3cn(C)c4ccccc34)n2)c(OC)cc1N(C)CCN(C)CCOCCOCCOCCOCCOCCOCCNS(=O)(=O)c1ccc(Nc2ncc(Br)c(Nc3cccc(F)c3C(N)=O)n2)cc1` [Compound I-34, 2-[[5-bromo-2-[4-[2-[2-[2-[2-[2-[2-[2-[2-[5-methoxy-N-methyl-4-[[4-(1-methylindol-3-yl)pyrimidin-2-yl]amino]-2-(prop-2-enoylamino)anilino]ethyl-methyl-amino]ethoxy]ethoxy]ethoxy]-ethoxy]ethoxy]ethoxy]ethylsulfamoyl]anilino]pyrimidin-4-yl]amino]-6-fluoro-benzamide], for which the Kd on EGFR is < 50 nM; in test [1] it was < 50 nM; in test [2], 50 to 500 nM.
As to `C=CC(=O)Nc1cc(Nc2nccc(-c3cn(C)c4ccccc34)n2)c(OC)cc1N(C)CCN(C)CCOCCOCCOCCOCCOCCOCCON(C)C(=O)N1N=C(c2cc(F)ccc2F)SC1(CCCN)c1ccccc1` (stereo not shown) [Compound I-68], the Kd in test [1] was < 50 nM; in test [2], 500 to 2500 nM.
For the compound `C=CC(=O)Nc1cc(Nc2nccc(-c3cn(C)c4ccccc34)n2)c(OC)cc1N(C)CCN(C)CCOCCOCCOCCOCCNC(=O)c1ccc(Nc2ncc3c(n2)N(C2CCCC2)[C@H](CC)C(=O)N3C)c(OC)c1` [Compound I-112, 4-[[(7R)-8-cyclopentyl-7-ethyl-5-methyl-6-oxo-7H-pteridin-2-yl]amino]-3-methoxy-N-[2-[2-[2-1[2-[2-1[2-1[5-methoxy-N-methyl-4-1[[4-(1-methylindol-3-yl)pyrimidin-2-yl]amino]-2-(prop-2-enoylamino)anilino]ethyl-methyl-amino]ethoxy]ethoxy]ethoxy]ethoxy]ethyl]benzamide], the Kd (on EGFR; in test [2]) was 500 to 2500 nM throughout.
A word on the GI50: it is the concentration at which growth is held to half of that of the control. Regarding `C=CC(=O)Nc1cc(Nc2nccc(-c3cn(C)c4ccccc34)n2)c(OC)cc1N(C)CCN(C)CCOCCOCCOCCOCCOCCOCCNC(=O)c1ccc(Nc2ncc3c(n2)N(C2CCCC2)[C@H](CC)C(=O)N3C)c(OC)c1` [Compound I-113, (R)—N-(2-(2-acrylamido-5-methoxy-4-((4-(1-methyl-1H-indol-3-yl)pyrimidin-2-yl)amino)phenyl)-5-methyl-8,11,14,17,20,23-hexaoxa-2,5-diazapentacosan-25-yl)-4-((8-cyclopentyl-7-ethyl-5-methyl-6-oxo-5,6,7,8-tetrahydropteridin-2-yl)amino)-3-methoxybenzamide], the GI50 in the test on HEK293 cells was 1500 to 5000 nM. For the same compound, the Kd (on EGFR; in test [2]) was 500 to 2500 nM throughout.
Turning to `C=CC(=O)Nc1cc(Nc2nccc(-c3cn(C)c4ccccc34)n2)c(OC)cc1N(C)CCN(C)CCNC(=O)c1ccc(Nc2ncc3c(n2)N(C2CCCC2)[C@H](CC)C(=O)N3C)c(OC)c1` [Compound I-115, 4-[[(7R)-8-cyclopentyl-7-ethyl-5-methyl-6-oxo-7H-pteridin-2-yl]amino]-3-methoxy-N-[2-[2-[5-methoxy-N-methyl-4-[1[4-(1-methylindol-3-yl)pyrimidin-2-yl]amino]-2-(prop-2-enoylamino)anilino]ethyl-methyl-amino]ethyl]benzamide], the GI50 in the test on HEK293 cells is 500 to 1500 nM. Moreover, the Kd at EGFR is > 2500 nM; in test [1], 50 to 500 nM; in test [2], > 2500 nM.
For `CC[C@@H]1C(=O)N(C)c2cnc(Nc3ccc(C(=O)NCCOCCOCCN(C)C/C=C/C(=O)Nc4cc(Nc5nccc(-c6cn(C)c7ccccc67)n5)c(OC)cc4N(C)CCN(C)C)cc3OC)nc2N1C1CCCC1` [Compound I-117, 4-[[(7R)-8-cyclopentyl-7-ethyl-5-methyl-6-oxo-7H-pteridin-2-yl]amino]-N-[2-[2-[2-1[[(E)-4-1[2-[2-(dimethylamino)ethyl-methyl-amino]-4-methoxy-5-1[[4-(1-methylindol-3-yl)pyrimidin-2-yl]amino]anilino]-4-oxo-but-2-enyl]-methyl-amino]ethoxy]ethoxy]ethyl]-3-methoxy-benzamide], the GI50 in the test on HEK293 cells was in the range of 500 to 1500 nM. Moreover, the Kd on EGFR is > 2500 nM; in test [1], 50 to 500 nM; in test [2], > 2500 nM.

These data come from patent US20250032623A1, “HETEROBIFUNCTIONAL COMPOUNDS AND THEIR USE IN TREATING DISEASE” (HALDA THERAPEUTICS OPCO, INC., priority 2021, published 2025).
